Drawing on ChEMBL document CHEMBL4706508, “Discovery of first-in-class multi-target adenosine A receptor antagonists-carbonic anhydrase IX and XII inhibitors. 8-Amino-6-aryl-2-phenyl-1,2,4-triazolo [4,3-a]pyrazin-3-one derivatives as new potential antitumor agents” (Eur J Med Chem, 2020), this text covers Ki and IC50 for 13 compounds.

Assay [1] has as its target Adenosine receptor A2a (Homo sapiens, UniProt P29274). The experiment in a line: Displacement of [3H]-NECA from human A2A receptor stably expressed in CHO cell membranes by radioligand competitive binding assay. Also on record: species or system Cell membrane.
Assay [2] has as its target Carbonic anhydrase 12 (Homo sapiens, UniProt O43570). The experiment in a line: Inhibition of human CA12 incubated for 15 mins by stopped- flow CO2 hydrase assay method.
The target of assay [3] is T1, Adenosine receptor A1 (Homo sapiens, UniProt P30542).
T1 sequence (P30542 whole entry): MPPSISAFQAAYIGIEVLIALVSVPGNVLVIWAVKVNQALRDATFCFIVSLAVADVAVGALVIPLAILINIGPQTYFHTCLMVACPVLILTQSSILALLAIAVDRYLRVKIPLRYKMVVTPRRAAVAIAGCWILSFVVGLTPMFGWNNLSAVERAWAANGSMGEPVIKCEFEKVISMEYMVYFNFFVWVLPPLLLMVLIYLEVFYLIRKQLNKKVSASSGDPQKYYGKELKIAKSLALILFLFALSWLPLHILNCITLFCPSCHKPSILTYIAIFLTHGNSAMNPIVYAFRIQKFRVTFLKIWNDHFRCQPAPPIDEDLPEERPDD
Nature of the assay: Displacement of [3H]-CCPA from human A1 receptor stably expressed in CHO cell membranes by radioligand competitive binding assay. Also noted: species or system Cell membrane. (In general: In a radioligand displacement assay an active substance lowers the binding of a labelled ligand.)

In assay [4] the target is T2, Adenosine receptor A3 (Homo sapiens, UniProt P0DMS8).
T2 sequence (P0DMS8 whole entry): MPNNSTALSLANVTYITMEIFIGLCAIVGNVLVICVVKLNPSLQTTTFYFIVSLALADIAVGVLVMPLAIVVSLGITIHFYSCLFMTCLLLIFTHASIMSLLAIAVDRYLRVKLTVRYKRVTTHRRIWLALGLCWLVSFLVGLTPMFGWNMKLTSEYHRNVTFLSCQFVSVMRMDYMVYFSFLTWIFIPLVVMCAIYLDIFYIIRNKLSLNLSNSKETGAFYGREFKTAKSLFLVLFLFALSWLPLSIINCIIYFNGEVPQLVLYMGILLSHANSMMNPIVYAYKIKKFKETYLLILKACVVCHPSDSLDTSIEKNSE
Nature of the assay: Displacement of [3H]-HEMADO from human A3 receptor stably expressed in CHO cell membranes by radioligand competitive binding assay. Also noted: species or system Cell membrane.

For assay [5], the target named is Carbonic anhydrase 9 (Homo sapiens, UniProt Q16790). The experiment in a line: Inhibition of human CA9 incubated for 15 mins by stopped- flow CO2 hydrase assay method.
The target in assay [6] is Carbonic anhydrase 1 (Homo sapiens, UniProt P00915). Nature of the assay: Inhibition of human CA1 incubated for 15 mins by stopped- flow CO2 hydrase assay method.
For assay [7], the target named is T3, Adenosine receptor A2b (Homo sapiens, UniProt P29275).
T3 sequence (P29275 whole entry): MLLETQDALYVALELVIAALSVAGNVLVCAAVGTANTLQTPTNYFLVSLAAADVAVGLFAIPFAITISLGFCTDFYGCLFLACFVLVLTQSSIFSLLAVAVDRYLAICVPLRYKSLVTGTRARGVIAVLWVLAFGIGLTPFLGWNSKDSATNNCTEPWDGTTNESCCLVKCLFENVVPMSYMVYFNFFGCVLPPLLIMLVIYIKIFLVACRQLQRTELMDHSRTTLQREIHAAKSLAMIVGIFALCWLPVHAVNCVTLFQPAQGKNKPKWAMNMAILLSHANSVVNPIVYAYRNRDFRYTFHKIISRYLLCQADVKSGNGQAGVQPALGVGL
The experiment in a line: Antagonist activity at human A2B receptor expressed in CHO cell membrane assessed as reduction in NECA-[…] level by GloSensor CAMP assay. In kind it is cell membranes.

The target of assay [8] is Carbonic anhydrase 2 (Homo sapiens, UniProt P00918). Nature of the assay: Inhibition of human CA2 incubated for 15 mins by stopped- flow CO2 hydrase assay method.

Chain of Carbonic anhydrase 1 (P00915 whole entry): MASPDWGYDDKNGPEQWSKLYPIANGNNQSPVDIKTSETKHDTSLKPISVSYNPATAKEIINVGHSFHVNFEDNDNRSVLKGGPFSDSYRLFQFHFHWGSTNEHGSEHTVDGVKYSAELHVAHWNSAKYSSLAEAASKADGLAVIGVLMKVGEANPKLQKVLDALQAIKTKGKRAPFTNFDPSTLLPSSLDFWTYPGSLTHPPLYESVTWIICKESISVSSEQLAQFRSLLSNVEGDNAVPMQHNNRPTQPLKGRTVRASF
Chain of Adenosine receptor A2a (P29274 whole entry): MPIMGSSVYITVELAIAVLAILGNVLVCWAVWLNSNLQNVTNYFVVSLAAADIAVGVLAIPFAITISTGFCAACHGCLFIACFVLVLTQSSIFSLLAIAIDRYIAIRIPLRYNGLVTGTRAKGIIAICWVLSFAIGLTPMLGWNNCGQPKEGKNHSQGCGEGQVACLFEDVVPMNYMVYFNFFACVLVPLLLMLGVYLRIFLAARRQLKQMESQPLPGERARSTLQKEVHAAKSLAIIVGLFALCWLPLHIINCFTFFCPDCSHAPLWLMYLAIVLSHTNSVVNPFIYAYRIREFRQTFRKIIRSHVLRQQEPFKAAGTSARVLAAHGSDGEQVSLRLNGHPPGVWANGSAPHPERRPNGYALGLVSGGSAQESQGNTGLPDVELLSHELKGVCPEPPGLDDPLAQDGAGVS
Chain of Carbonic anhydrase 12 (O43570 whole entry): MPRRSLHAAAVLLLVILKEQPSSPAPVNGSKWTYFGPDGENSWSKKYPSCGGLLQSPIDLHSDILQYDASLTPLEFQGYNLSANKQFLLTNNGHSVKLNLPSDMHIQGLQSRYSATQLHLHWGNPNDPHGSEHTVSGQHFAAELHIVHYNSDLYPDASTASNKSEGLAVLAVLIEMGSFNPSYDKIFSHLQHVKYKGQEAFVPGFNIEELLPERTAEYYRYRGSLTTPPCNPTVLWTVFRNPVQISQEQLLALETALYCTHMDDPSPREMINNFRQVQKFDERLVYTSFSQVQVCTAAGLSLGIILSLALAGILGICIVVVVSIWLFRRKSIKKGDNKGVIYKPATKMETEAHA

The term Ki denotes a measure of affinity in units of concentration, obtained from inhibition or displacement. Read a low Ki as higher affinity. The term IC50 denotes the midpoint of a concentration-inhibition curve. As for `Nc1nc(-c2ccc(NCc3ccc(S(N)(=O)=O)cc3)cc2)cn2c(=O)n(-c3ccccc3)nc12`, the inhibition constant (Ki) in assay [1] was 0.0279 µM; in assay [2] it was 0.625 µM; in assay [3], 0.0877 µM; in assay [4], > 30 µM; in assay [5], 5.97 µM; in assay [6], 0.57 µM. Moreover, the Ki in assay [8] is 0.897 µM. Besides, in assay [7], the IC50 is > 30 µM.
As for `Nc1nc(-c2ccc(NC(=O)CCNCCc3ccc(S(N)(=O)=O)cc3)cc2)cn2c(=O)n(-c3ccccc3)nc12`, the Ki was 0.0106 µM in assay [1]; 0.000263 µM in assay [2]; 1.03 µM in assay [3]; 5.83 µM in assay [4]; 0.109 µM in assay [5]; 8.71 µM in assay [6]. In addition, the Ki in assay [8] amounted to 0.526 µM. The IC50 in assay [7] is > 30 µM.
Consider `CN(C)c1nc(-c2ccc(S(N)(=O)=O)cc2)cn2c(=O)n(-c3ccccc3)nc12`, for which the Ki worked out at 3.89 µM in assay [1]; 0.358 µM in assay [2]; 0.435 µM in assay [3]; 19.5 µM in assay [4]; 6.73 µM in assay [5]; 2.09 µM in assay [6]. In assay [8], this compound gave a Ki of 0.464 µM. In assay [7], the IC50 was > 30 µM.
Regarding `Nc1nc(-c2ccc(NC(=O)c3cccc(S(N)(=O)=O)c3)cc2)cn2c(=O)n(-c3ccccc3)nc12`, the Ki in assay [1] is 0.0135 µM; in assay [2], 0.303 µM; in assay [3], 1.21 µM; in assay [4] it was > 30 µM; in assay [5], 0.81 µM; in assay [6], 2.29 µM. The compound further registered an inhibitory constant (Ki) in assay [8] of 0.367 µM. The IC50 in assay [7] was > 30 µM.
In the case of `Nc1nc(-c2ccc(NC(=O)CCNCc3ccc(S(N)(=O)=O)cc3)cc2)cn2c(=O)n(-c3ccccc3)nc12`, the Ki is 0.0963 µM in assay [1]; 0.0415 µM in assay [2]; 0.839 µM in assay [3]; > 30 µM in assay [4]; 0.319 µM in assay [5]; 9 µM in assay [6]. The affinity in assay [8], expressed as Ki, was 6.76 µM. Also, the IC50 in assay [7] was > 30 µM.
`Nc1nc(-c2ccc(OCCNCCc3ccc(S(N)(=O)=O)cc3)cc2)cn2c(=O)n(-c3ccccc3)nc12`: the inhibitory constant (Ki) in assay [1] is 0.0879 µM; in assay [2] it was 0.795 µM; in assay [3] it was 0.283 µM; in assay [4], 7.01 µM; in assay [5], 9.46 µM; in assay [6], 0.973 µM. In addition, the affinity in assay [8], expressed as Ki, was 0.934 µM. Moreover, in assay [7], the IC50 was > 30 µM.
As for `Nc1nc(-c2ccc(NC(=O)c3ccc(O)c(O)c3)cc2)cn2c(=O)n(-c3ccccc3)nc12`, the Ki in assay [1] is 0.009 µM; in assay [2] it was > 100 µM; in assay [3], 0.546 µM; in assay [4] it was 1.25 µM; in assay [5] it was 44.3 µM; in assay [6], > 100 µM. Moreover, the affinity in assay [8], expressed as Ki, was 31.7 µM. Further, in assay [7], the IC50 is > 30 µM.
With `Nc1nc(-c2ccc(NCC(=O)c3ccc(S(N)(=O)=O)cc3)cc2)cn2c(=O)n(-c3ccccc3)nc12`, the Ki in assay [1] amounted to 0.026 µM; in assay [2], 0.0257 µM; in assay [3], 0.131 µM; in assay [4], 6.76 µM; in assay [5], 9.45 µM; in assay [6] it was 0.589 µM. Besides, the Ki in assay [8] is 0.246 µM. Also, the IC50 in assay [7] is > 30 µM.
With `COc1ccc(C(=O)Nc2ccc(-c3cn4c(=O)n(-c5ccccc5)nc4c(N)n3)cc2)cc1OC`, the Ki in assay [1] is 0.0206 µM; in assay [2], > 100 µM; in assay [3], 0.0988 µM; in assay [4], > 30 µM; in assay [5] it was > 100 µM; in assay [6], > 100 µM. Moreover, the Ki in assay [8] is > 100 µM. For the same compound, in assay [7], the IC50 was > 30 µM.
Turning to `Nc1nc(-c2ccc(NC(=O)CCC(=O)O)cc2)cn2c(=O)n(-c3ccccc3)nc12`, the Ki in assay [1] was 0.573 µM; in assay [2], > 100 µM; in assay [3], 2.3 µM; in assay [4], 6.96 µM; in assay [5], > 100 µM; in assay [6], > 100 µM. Also, the Ki in assay [8] was > 100 µM. Moreover, the concentration for half-maximal inhibition (IC50) in assay [7] is > 30 µM.
Take `Nc1nc(-c2ccc(NC(=O)c3ccc(O)cc3)cc2)cn2c(=O)n(-c3ccccc3)nc12`: the Ki in assay [1] was 0.0412 µM; in assay [2], 4.4 µM; in assay [3], 0.194 µM; in assay [4], 1.07 µM; in assay [5], > 100 µM; in assay [6] it was > 100 µM. The same compound returned a Ki in assay [8] of 47.3 µM. Besides, the IC50 in assay [7] was > 30 µM.
Regarding `CCOC(=O)c1ccc(C(=O)Nc2ccc(-c3cn4c(=O)n(-c5ccccc5)nc4c(N)n3)cc2)cc1`, the Ki in assay [1] was 1.36 µM; in assay [2], > 100 µM; in assay [3], 7.48 µM; in assay [4] it was > 30 µM; in assay [5], > 100 µM; in assay [6], > 100 µM. The Ki in assay [8] was > 100 µM. In addition, the IC50 in assay [7] is > 30 µM.
For `Nc1nc(-c2ccc(NC(=O)c3ccc(C(=O)NO)cc3)cc2)cn2c(=O)n(-c3ccccc3)nc12`, the Ki in assay [1] is 0.036 µM; in assay [2] it was > 100 µM; in assay [3] it was 0.395 µM; in assay [4] it was 0.546 µM; in assay [5], > 100 µM; in assay [6], > 100 µM. Also, the Ki in assay [8] amounted to 63 µM. In assay [7], the IC50 is > 30 µM.
